We go through three compounds from patent US20240382470A1, “Irak Inhibitor for Treating Cytokine Release-Related Conditions Associated With Infection by a Respiratory Virus” (Rigel Pharmaceuticals, Inc., priority 2021, published 2024).

For data set [1], the system named is Dendritic cells + T cells + CD3/CD28 beads. Put plainly: CRS assay, IL2 ELISA of supernatant. Type of data set: cell-based. As to conditions: Homo sapiens; 1 hour compound pre-incubation, overnight incubation; IL-2 only produced by activated T cells. (In general: ELISA stands for enzyme-linked immunosorbent assay.)
For data set [2] the test system is unchanged. Put plainly: CRS assay, IL6 ELISA of supernatant. It is filed as cell-based. As to conditions: Homo sapiens, read-out: Dendritic cells + T cells + CD3/CD28 beads IL6* ELISA EC50 (μM).
The next data set concerns the target human ACE2 (Homo sapiens, UniProt Q9BYF1). The following applies: cited from earlier work.
Data set [3] deals with Shp1fl/fl RosaERT2-Cre/+ mouse model of lung inflammation. The following applies: throughout the 21 days, control chow or Compound VII-49 chow.
Protocol: ARDS-like disease model is produced by crossing Shp1^fl/fl to Shp1^fl/flRosa^ERT2-CRE/+ mice. Rosa^ERT2-CRE/+ is expressed under a Tamoxifen inducible promoter. When Tamoxifen is administered to Shp1^fl/flRosa^ERT2-CRE/+ mice CRE recombinase is activated resulting in deletion of Shp1 in hematopoietic cells.
Tamoxifen is administered at day 1 for a total of 4 days wherein Tamoxifen is administered twice a day at 200 mg/kg/bid (400 mg/kg/day). […] Mice were euthanized on day 21.
In an effort to generate an ARDS-like disease model, Shp1^fl/fl Rosa^ERT2-CRE/+ obtained from Jackson Laboratories were crossed to Shp1^fl/fl mice. Rosa^ERT2-CRE/+ is under the control of a Tamoxifen inducible promoter. Shp1^fl/fl Rosa^ERT2-CRE/+ mice were administered Tamoxifen to activate CRE recombinase resulting in deletion of Shp1 in all cells that normally express Shp1 (FIG. 1).
Mice were euthanized on day 21.

SMILES strings stand for the structures. Counter-ions that a name gives are not always drawn.

Chain of human ACE2 (Q9BYF1 18-805): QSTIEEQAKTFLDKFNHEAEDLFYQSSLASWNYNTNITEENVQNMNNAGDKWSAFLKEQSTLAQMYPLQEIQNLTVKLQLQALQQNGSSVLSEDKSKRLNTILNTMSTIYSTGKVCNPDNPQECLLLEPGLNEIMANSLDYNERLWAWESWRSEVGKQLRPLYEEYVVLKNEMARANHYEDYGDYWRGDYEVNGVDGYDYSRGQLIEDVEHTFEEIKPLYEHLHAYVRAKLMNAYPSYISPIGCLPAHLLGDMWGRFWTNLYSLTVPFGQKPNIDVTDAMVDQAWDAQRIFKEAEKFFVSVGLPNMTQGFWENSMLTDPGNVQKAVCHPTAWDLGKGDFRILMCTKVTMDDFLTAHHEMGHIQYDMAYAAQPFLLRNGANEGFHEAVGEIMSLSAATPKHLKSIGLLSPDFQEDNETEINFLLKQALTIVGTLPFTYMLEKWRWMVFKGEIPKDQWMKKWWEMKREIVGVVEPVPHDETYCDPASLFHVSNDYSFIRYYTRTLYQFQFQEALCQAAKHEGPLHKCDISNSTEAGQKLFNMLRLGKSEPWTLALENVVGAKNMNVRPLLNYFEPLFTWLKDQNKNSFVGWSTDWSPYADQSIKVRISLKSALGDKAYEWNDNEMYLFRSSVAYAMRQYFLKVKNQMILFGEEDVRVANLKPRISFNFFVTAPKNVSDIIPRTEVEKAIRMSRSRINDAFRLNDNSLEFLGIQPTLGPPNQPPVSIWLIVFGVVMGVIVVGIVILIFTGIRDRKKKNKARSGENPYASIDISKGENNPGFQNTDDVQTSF

As to `CCO[C@H]1CC[C@H](n2cc(NC(=O)c3csc(-c4cn[nH]c4)n3)c(-c3nc(F)ccc3F)n2)CC1` [VI-176, N-(3-(3,6-difluoropyridin-2-yl)-1-((1r,4r)-4-ethoxycyclohexyl)-1H-pyrazol-4-yl)-2-(1H-pyrazol-4-yl)thiazole-4-carboxamide], the EC50 in data set [1] worked out at 6900 nM; in data set [2], 0.195 µM.

Turning to `N[C@@H](CCN[C@@H](CCN1CC[C@H]1C(=O)O)C(=O)O)C(=O)O` [nicotianamine], the IC50 on human ACE2 is 84 nM.

In the case of `CCO[C@H]1CC[C@H](n2cc(NC(=O)c3csc(-c4cnn(C(C)OP(=O)(O)O)c4)n3)c(-c3nc(F)ccc3F)n2)CC1` (stereo partly shown) [VII-49, 1-(4-(4-((3-(3,6-difluoropyridin-2-yl)-1-((1r,4r)-4-ethoxycyclohexyl)-1H-pyrazol-4-yl)carbamoyl)thiazol-2-yl)-1H-pyrazol-1-yl)ethyl dihydrogen phosphate tris salt], the mortality result in data set [3] was “no mice died”.

Usually IC50 stands for the concentration that inhibits the measured activity by half.
